In US9814752B2, “Agonists of guanylate cyclase useful for the treatment of hypercholesterolemia, atherosclerosis, coronary heart disease, gallstone, obesity and other cardiovascular diseases” (SYNERGY PHARMACEUTICALS, INC., priority 2007, dated 2017):
Positions of bridges follow the written chain, without caps; N, C: chain ends. Residues, ends and D or L forms follow the SMILES beside them.

Columns and labels:
[1] = target: T1, GC-C receptors (Homo sapiens, UniProt P25092); test: Cyclic GMP stimulation assay in CaCo-2 monolayers (cGMP ELISA); assay type: cell-based; details: for effect of PDE inhibitor on stimulation of cGMP production by SP-304: PDE inhibitor in combination with SP-304, 30 minutes
T1 construct: host or cells: CaCo-2 human colon carcinoma cells, differentiated monolayers grown for 16 days
T1 sequence (P25092 24-1073): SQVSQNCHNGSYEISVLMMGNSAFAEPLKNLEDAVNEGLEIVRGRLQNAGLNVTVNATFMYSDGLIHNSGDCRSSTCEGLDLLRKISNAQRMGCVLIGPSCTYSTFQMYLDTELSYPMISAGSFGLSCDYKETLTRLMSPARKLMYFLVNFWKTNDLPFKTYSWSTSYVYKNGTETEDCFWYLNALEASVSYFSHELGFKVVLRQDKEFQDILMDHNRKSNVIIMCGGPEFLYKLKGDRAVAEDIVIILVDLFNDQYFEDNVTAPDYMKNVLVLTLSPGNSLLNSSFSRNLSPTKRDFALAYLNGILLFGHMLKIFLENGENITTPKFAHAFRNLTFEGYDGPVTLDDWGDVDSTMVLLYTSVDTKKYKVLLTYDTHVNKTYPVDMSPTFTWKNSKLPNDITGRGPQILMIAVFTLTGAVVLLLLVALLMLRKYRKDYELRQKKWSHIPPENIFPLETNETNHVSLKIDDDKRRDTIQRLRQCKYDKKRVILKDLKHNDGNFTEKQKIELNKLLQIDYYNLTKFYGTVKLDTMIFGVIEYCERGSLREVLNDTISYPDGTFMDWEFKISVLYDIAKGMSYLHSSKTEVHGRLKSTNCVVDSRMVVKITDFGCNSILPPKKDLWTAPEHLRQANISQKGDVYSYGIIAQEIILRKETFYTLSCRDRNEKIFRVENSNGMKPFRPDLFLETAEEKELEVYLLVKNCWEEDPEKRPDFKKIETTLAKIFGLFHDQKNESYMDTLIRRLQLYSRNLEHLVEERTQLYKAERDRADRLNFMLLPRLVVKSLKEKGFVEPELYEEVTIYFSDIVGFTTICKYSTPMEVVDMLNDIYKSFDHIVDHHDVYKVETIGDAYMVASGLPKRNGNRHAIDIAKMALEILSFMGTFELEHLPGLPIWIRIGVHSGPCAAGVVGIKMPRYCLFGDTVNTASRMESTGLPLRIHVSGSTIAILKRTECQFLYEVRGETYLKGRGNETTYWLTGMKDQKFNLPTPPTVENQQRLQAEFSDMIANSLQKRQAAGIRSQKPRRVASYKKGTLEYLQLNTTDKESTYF
Protocol: (§1) CaCo-2, human colon carcinoma cells, were obtained from American Type Culture Collection (ATCC) and cultured in DMEM medium containing 10% fetal bovine serum, 1% penicillin-streptomycin, 2 mM L-glutamine, 1% non-essential-amino acids. Cells were fed fresh medium every third day and grown for 16-21 days to form completely differentiated monolayer. Fully differentiated CaCo-2 cells are known to express high density of GC-C receptors.
Biological activity of the GCRA peptides was assayed as previously reported (5). Briefly, 16 days grown monolayers of CaCo-2 cells in 24-well plates were washed twice with 250 μl of DMEM containing 50 mM HEPES (pH 7.4), pre-incubated at 37° C. for 10 min with 250 μl of DMEM containing 50 mM HEPES (pH 7.4) and 1 mM isobutylmethylxanthine (IBMX), followed by incubation with GCRA peptides (0.1 nM to 10 μM) for 30 min. The medium was aspirated, and the reaction was terminated by the addition of 3% perchloric acid. Following centrifugation, and neutralization with 0.1 N NaOH, the supernatant was used directly for measurements of cGMP using an ELISA kit (Caymen Chemical, Ann Arbor, Mich.)
Monolayers were treated […] of serum free DMEM for 30 minutes with either SP-304 alone or in combination with phosphodiesterase inhibitors such as, 3-isobutyl-1-methylxanthine (IBMX), sulindac sulfone (SS) and zaprinast (ZAP). After the incubation, monolayer were lysed with 250 μL of 3% perchloric acid. The lysate was neutralized with 0.1 N NaOH and used for ELISA to determine the concentration of cGMP. The assay procedure was essentially the same as described (5). […] Since CaCo-2 cells overexpress phosphodiesterases (PDE), GC-C agonists are used in combination with PDE inhibitors to measure the actual stimulatory effect of GC-C agonists.

[2] = tested on: CaCo-2 cells; test: ^3H-taurocholate (bile acid) absorption by CaCo-2 monolayer; assay type: cell-based, human; details: for absorption of ^3H-taurocholate (kinetics, FIG. 4): 16-day CaCo-2 monolayers, incubation up to 60 minutes, average of three determinations; for absorption of ^3H-taurocholate (kinetics, FIG. 4) / absorption of ^3H-taurocholate (FIG. 5): 30 min pre-incubation; for absorption of ^3H-taurocholate (FIG. 5): 20-day CaCo-2 cells, 60 minutes with 1 uCi ^3H-taurocholate, quadruplets
Protocol: as §1
Phosphatidyl choline was dissolved in ethanol to make 50 mM stock solution. Calculated volume of the stock solution of phosphatidyl choline was mixed with 3H-taurocholate in a plastic tube and dried under argon gas at 80° C. The dried material was dissolved in transport buffer to get the final concentration of phosphatidyl choline (0.5 mM) and of 3H-taurocholate 10 μCi/mL.
CaCo-2 cells were grown in 24-well plates for 16 days to allow complete monolayer formation and cell differentiation. Completely differentiated monolayers were then pre-incubated with 250 μL of the transport buffer (HEPES 25 mM, NaCl 120 mM, KCl 5.4 mM, CaCl2 1.8 mM and MgSO4, pH 7.5) containing either SP-304 alone or in combination with PDE inhibitors such as IBMX, SS and ZAP. The monolayers were pre-incubated with transport buffer containing either of the following: vehicle (control), 1 mM 8-bromo-cGMP, 500 μM SS, 500 μM ZAP, 1 μM SP-304, 0.1 μM SP-304+500 μM SS and 1 μM SP-304+500 μM ZAP. After the indicated pre-incubation time, 50 μL, of ^3H-taurocholate (1 μCi) cocktail was added and cells were incubated for an additional 60 minutes, washed three times with ice cold PBS. Cells were lysed with 0.5 N NaOH for 4 hours and radioactivity in the lysate was counted in a scintillation counter.
16-day grown monolayers of CaCo-2 cells in 24-well plates were pre-incubated with transport buffer containing the compounds as indicated in the figure for 30 minutes. After the pre-incubation, 1 μCi of ^3H-taurocholate cocktail was added in each well and cells were further incubated for 60 minutes. Cells were washed three times with ice cold PBS and lysed with 0.5 N NaOH and lysates were counted for radioactivity in a scintillation counter. Results are expressed as an average of three determinations. Results on the x-axis were plotted in logarithmic scale.
After the pre-incubation, 1 μCi of ^3H-taurocholate cocktail was added in each well and cells were further incubated for 60 minutes. Cells were washed three times with ice cold PBS and lysed with 0.5 N NaOH and lysates were counted for radioactivity in a scintillation counter. This experiment was run in quadruplets and results are expressed as mean±SD.
The procedure used in this experiment was essentially the same except that a lower concentration of ZAP (250 μM) in combination experiments with SP-304.

Structure (SMILES)	effect of PDE inhibitor on stimulation of cGMP production by SP-304 [1]	absorption of ^3H-taurocholate (kinetics, FIG. 4) [2]	absorption of ^3H-taurocholate (FIG. 5) [2]	also measured
CC(C)Cn1c(=O)n(C)c(=O)c2[nH]cnc21 [IBMX, 3-isobutyl-1-methylxanthine]	synergistic effects			
CC(C)C[C@H](NC(=O)[C@@H]1CSSC[C@@H]2NC(=O)[C@H](CC(C)C)NC(=O)[C@H](CCC(=O)O)NC(=O)[C@@H](NC(=O)[C@H](CCC(=O)O)NC(=O)[C@H](CC(=O)O)NC(=O)[C@@H](N)CC(N)=O)CSSC[C@H](NC(=O)[C@H](C)NC(=O)[C@H](C(C)C)NC(=O)[C@H](CC(N)=O)NC(=O)[C@H](C(C)C)NC2=O)C(=O)N[C@@H]([C@@H](C)O)C(=O)NCC(=O)N1)C(=O)O [SP-304, Asn^1-Asp^2-Glu^3-Cys^4-Glu^5-Leu^6-Cys^7-Val^8-Asn^9-Val^10-Ala^11-Cys^12-Thr^13-Gly^14-Cys^15-Leu^16] (H-NDECELCVNVACTGCL-OH; disulfide 4-12, 7-15; N-terminus assumed)		inhibited	inhibited	cGMP production by CaCo-2 cells in response to stimulation ([1]; serum free DMEM, 30 minutes, cGMP by ELISA): produced cGMP in response to stimulation; inhibition in absorption of ^3H-taurocholate (FIG. 6), SP-304 alone ([2]; SP-304 0.1 uM alone): did not produce much inhibition; inhibition of ^3H-taurocholate absorption (FIG. 6), SP-304 in combination with ZAP ([2]; SP-304 0.1 uM in combination with ZAP 250 uM, compared with SP-304 alone): greater effect on inhibition
CCCOc1ccccc1-c1nc2nn[nH]c2c(=O)[nH]1 [ZAP, zaprinast]	synergistic effects			cGMP production among the PDE inhibitors combined with SP-304 ([1]; comparison of IBMX, SS and ZAP): maximum production of cGMP
CC1=C(CC(=O)O)c2cc(F)ccc2/C1=C\c1ccc(S(C)(=O)=O)cc1 [SS, sulindac sulfone]	synergistic effects			
Nc1nc2c(nc(Br)n2[C@@H]2O[C@@H]3COP(=O)(O)O[C@H]3[C@H]2O)c(=O)[nH]1 [8-Br-cGMP, 8-bromo-cGMP]		inhibited	inhibited	
